Literature values as cited in patent publication US11761043B2, “Machine assay and analysis for selecting antihypertensive drugs” (Geneticure Inc., priority 2014, dated 2023).

How the values were obtained:
renin = settings: cytosine (guanine) variant of renin rs12750834
CYP2D6 [1] = settings: individuals homozygous for adenine (AA) at rs3892097 vs subjects not homozygous AA
CYP2D6 [2] = target: CYP2D6 (Homo sapiens, UniProt P10635); settings: in vivo
Sequence of CYP2D6 (Homo sapiens, UniProt P10635) (P10635 whole entry): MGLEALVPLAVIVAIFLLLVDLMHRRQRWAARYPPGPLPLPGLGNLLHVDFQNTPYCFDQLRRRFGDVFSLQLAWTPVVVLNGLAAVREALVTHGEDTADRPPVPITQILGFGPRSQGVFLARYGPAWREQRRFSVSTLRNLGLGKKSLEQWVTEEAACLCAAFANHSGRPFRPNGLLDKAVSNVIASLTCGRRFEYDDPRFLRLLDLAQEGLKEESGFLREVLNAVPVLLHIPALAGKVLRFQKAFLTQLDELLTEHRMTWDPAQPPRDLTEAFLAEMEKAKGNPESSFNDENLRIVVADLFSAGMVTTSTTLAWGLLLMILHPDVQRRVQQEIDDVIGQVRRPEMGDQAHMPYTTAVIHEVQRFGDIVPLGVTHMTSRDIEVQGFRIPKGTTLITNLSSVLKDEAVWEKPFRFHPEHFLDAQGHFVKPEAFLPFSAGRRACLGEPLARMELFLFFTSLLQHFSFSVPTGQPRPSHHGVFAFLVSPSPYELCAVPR

| plasma levels after taking these drugs (CYP2D6 [1]) | SMILES | also measured |
| --- | --- | --- |
|  | CCCCC(=O)N(Cc1ccc(-c2ccccc2-c2nnn[nH]2)cc1)[C@H](C(=O)O)C(C)C [valsartan] | reduction in blood pressure upon administration (renin): greater reduction in blood pressure |
| higher plasma levels | COCCc1ccc(OCC(O)CNC(C)C)cc1 (stereo not shown) [metoprolol] |  |
| higher plasma levels | CC(C)NCC(O)COc1cccc2ccccc12 (stereo not shown) [propranolol] |  |
|  | COc1ccccc1OCCNCC(O)COc1cccc2[nH]c3ccccc3c12 (stereo not shown) [carvedilol] | requirement of CYP2D6 for metabolism (CYP2D6 [2]): do not require CYP2D6 for their metabolism |
